Legend:
H-RasG12V nanoclustering = assay: H-RasG12V nanoclustering-FRET (FLIM-FRET) in HEK cells; assay type: cell-based; details: 24 h, conglobatin A 2 μM, salinomycin 1.3 μM, CAY10585 10 μM
Procedure: In total, 80,000 HEK cells were seeded in 12-well plates containing sterilized 16-mm coverslips and 1 mL medium. The next day, the cells were transfected using jetPRIME or FuGENE HD transfection reagent. For the donor fluorophore-only samples, the cells were transfected with 500 ng mGFP-tagged RasG12V plasmid. For the nanoclustering-FRET pair samples, the cells were transfected with both the donor and acceptor constructs, i.e., pmGFP- and pmCherry- RasG12V at a plasmid ratio of 1:3, respectively, and a total of 800 ng plasmids. The next day, the cells were treated with either 0.1% DMSO vehicle control or the indicated concentrations of compounds diluted in DMEM or RPMI medium for 24 h. For the gene silencing studies, the cells were transfected with the indicated amounts of siRNAs, together with the FRET pair constructs. The plasmids and siRNA were diluted in the same jetPRIME transfection buffer, followed by the addition of jetPRIME. After 48 h of transfection, the cells were fixed in 4% paraformaldehyde for 10 to 15 min, before being mounted onto slides with Mowiol 4–88 (cat. no. 81381, Sigma-Aldrich). The lifetime of the mGFP donor fluorophore was measured using a fluorescence microscope (Zeiss AXIO Observer D1) equipped with a fluorescence lifetime imaging attachment (Lambert Instruments), as described previously in detail. The apparent FRET efficiency (Eapp) was calculated as Eapp = (1 − τDA/τD) × 100%, with the measured fluorescence lifetimes τDA of the FRET sample and the τD of the donor-only sample.

Gal3 = assay: Western blotting of galectin-3; assay type: cell-based; details: Western blot, 24 h; K-RasG12V-transfected HEK and MDA-MB-231 cells
Procedure: The cells were trypsinized, washed with PBS, and lysed in RIPA buffer (cat no. 89900, ThermoFisher Scientific) containing protease and phosphatase inhibitors (cat. no. A32959, ThermoFisher Scientific) and 1 mM phenylmethylsulfonyl fluoride (PMSF). The cells in the RIPA buffer were placed on ice for 20 min, and were then sonicated in ice cold water for 5 min. The lysates were centrifuged at 4 °C, and their protein was quantified using a BCA kit (cat. no. 23225, ThermoFisher Scientific). Equal amounts of protein were separated by 10% SDS-PAGE, and were then transferred onto a nitrocellulose membrane (cat. no. NBA 083C001EA, Protran) using a wet transfer system (Bio-Rad) or semidry Transferblot Turbo Transfer System (Bio-Rad). After the transfer, the membranes were blocked for 30 min in 5% skimmed milk dissolved in 1× TBST, and then incubated with 1:2000 primary antibodies in 5% BSA in TBST at 4 °C overnight. […]
The next day, the membranes were washed three times in TBST for 10 min, and then incubated with secondary antibodies (1:5000) diluted in 5% skimmed milk in TBST for 1 h at RT. […] The protein bands were detected with a ChemiDoc MP instrument (Bio-Rad) after treatment with an ECL reagent (cat. no. 170-5061, BioRad). […]

[1] = parameters: method as in PMID 24927996; details: mice, 900 mg/kg; cited from earlier work
HCC-44 cells = assay: Tumorosphere assay (low adhesion, serum-free 3D spheroid culture); assay type: cell-based; details: Homo sapiens, HCC44; HCC-44 (lung, G12C), low attachment, serum-free, 72 h; read-out: 3D spheroid formation IC50
Procedure: (§1) Per well, 2000 cells were seeded in flat bottom 96-well suspension culture plates (cat. no. 655185, Cellstar, Greiner Bio-One) in 100 µL DMEM or RPMI media containing 1× B27 (cat. no. 17504044, Gibco, Thermo Fisher Scientific), 25 ng/mL EGF (cat. no. E9644, Sigma-Aldrich), and 25 ng/mL FGF (cat. no. RP-8628, Thermo Fisher Scientific), 20% MethoCult H4100 (cat. no. 04100, […] Technologies). After 2 days, 50 µL media containing 0.3% DMSO or 3× the concentration of the indicated compounds were added to the wells in a 1:2 dilution-series, starting at 100 µM. After 72 h of treatment, 10% (v/v) alamarBlue reagent (cat. no. DAL1100, Thermo Fisher Scientific) was added to each well. Then, the fluorescence intensity (excitation 560 nm and emission 590 nm) was measured after 4 h using a H1 Hybrid Multi-Mode reader (BioTek).

MDA-MB-231 cells = assay: as above; assay type: cell-based; details: Homo sapiens, MDA-MB-231, 72 h; read-out: 3D spheroid formation IC50
Procedure: as §1

MIA PaCa-2 cells = assay: as above; assay type: cell-based; details: Homo sapiens; MIA PaCa-2 (pancreas), low attachment, serum-free, 72 h; read-out: 3D spheroid formation IC50
Procedure: as §1

SK-BR-3 cells = assay: as above; assay type: cell-based; details: Homo sapiens; SK-BR-3 (breast, n.a.), low attachment, serum-free, 72 h; read-out: 3D spheroid formation IC50
Procedure: as §1

Row | Structure (SMILES) | H-RasG12V nanoclustering-FRET (H-RasG12V nanoclustering) | Gal3 levels (Gal3) | acute toxicity [1] | IC50 (HCC-44 cells) [µM] | IC50 (MDA-MB-231 cells) [µM] | IC50 (MIA PaCa-2 cells) [µM] | IC50 (SK-BR-3 cells) [µM]
1 | C/C1=C\[C@H](C)C[C@H](C)[C@H](Cc2cnco2)OC(=O)/C(C)=C/[C@H](C)C[C@H](C)[C@H](Cc2cnco2)OC1=O [conglobatin A, reference compound] | not H-RasG12V-nanoclustering | dose-dependently reduced | well tolerated | – | – | – | –
2 | N=C(CSS(=O)(=O)O)NCC12CC3CC(CC(C3)C1)C2 [×6506, [({N-[(adamantan-1-yl)methyl]carbamimidoyl}methyl)sulfanyl]sulfonic acid] | – | – | – | 67 ± 5 | 26 ± 1 | 30 ± 3 | 36 ± 4
3 | CCOc1ccc(C(=O)c2ccc(O)c(O)c2O)cc1 [×1540, 2,3,4-TRIHYDROXY-4'-ETHOXYBENZOPHENONE] | – | – | – | 52 ± 6 | 58 ± 5 | 53 ± 6 | 64 ± 5

— PMC7927014, “Novel Small Molecule Hsp90/Cdc37 Interface Inhibitors Indirectly Target K-Ras-Signaling” (Cancers, 2021)
